Measured values taken from patent publication EP2818471A1, “Nitrogen bicyclic compounds as inhibitors for Scyl1 and Grk5” (Max-Planck-Gesellschaft zur Förderung der Wissenschaften …, priority 2013, dated 2014).

Test system: beta-TC6 cells
Assay: Insulin HTRF assay, relative activity Ar normalized to sunitinib
Assay type: cell-based
Conditions: Mus musculus, normalized to positive control sunitinib (5 µM = 100%), Table 10
Method in brief: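 beta-TC6 cells (15k/well) were seeded for 24 or 48 h, washed and exposed to test compound or sunitinib (5 µM f.c.) in induction buffer with 0.5% DMSO for 2, 3 or 4 h at 37°C. Secreted insulin in the supernatant was measured by two-antibody HTRF after 120 min at RT. Ar = (V − 0% control)/(100% control − 0% control) × 100.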

Compound | Emax [%]
FC(F)(F)Oc1cccc(-c2ccc3nnc(-c4ccncc4)n3c2)c1 [compound 178, 3-(4-pyridyl)-6-[3-(trifluoromethoxy)phenyl]-[1,2,4]triazolo[4,3-a]pyridine] | 20 to 50
OCc1ccc(-c2ccc3nnc(-c4ccncc4)n3c2)cc1 [compound 179, [4-[3-(4-pyridyl)-[1,2,4]triazolo[4,3-a]pyridin-6-yl]phenyl]methanol] | 20 to 50
FC(F)(F)c1cccc(C#Cc2ccc3nnc(-c4ccncc4)n3c2)c1 [compound 180, 3-(4-pyridyl)-6-[2-[3-(trifluoromethyl)phenyl]ethynyl]-[1,2,4]triazolo[4,3-a]pyridine] | 10 to 20
c1ccc(Oc2cccc(-c3ccc4nnc(-c5ccncc5)n4c3)c2)cc1 [compound 181, 6-(3-phenoxyphenyl)-3-(4-pyridyl)-[1,2,4]triazolo[4,3-a]pyridine] | 20 to 50
CN(C)c1ccc(-c2ccc3nnc(-c4cccnc4)n3c2)cc1 [compound 182, N,N-dimethyl-4-[3-(3-pyridyl)-[1,2,4]triazolo[4,3-a]pyridin-6-yl]aniline] | 50 to 100
CC(C)c1cccc(-c2ccc3nnc(-c4cccnc4)n3c2)c1 [compound 183, 6-(3-isopropylphenyl)-3-(3-pyridyl)-[1,2,4]triazolo[4,3-a]pyridine] | 50 to 100
Clc1ccccc1-c1ccc2nnc(-c3cccnc3)n2c1 [compound 184, 6-(2-chlorophenyl)-3-(3-pyridyl)-[1,2,4]triazolo[4,3-a]pyridine] | 50 to 100
COc1ccc(-c2nnc3ccc(-c4cccc(N(C)C)c4)cn23)cc1OC [compound 185, 3-[3-(3,4-dimethoxyphenyl)-[1,2,4]triazolo[4,3-a]pyridin-6-yl]-N,N-dimethyl-aniline] | 50 to 100
COc1ccc(-c2nnc3ccc(-c4ccc(S(C)(=O)=O)cc4)cn23)cc1OC [compound 186, 3-(3,4-dimethoxyphenyl)-6-(4-methylsulfonylphenyl)-[1,2,4]triazolo[4,3-a]pyridine] | 10 to 20
COc1ccc(-c2nnc3ccc(-c4cccc(F)c4)cn23)cc1OC [compound 187, 3-(3,4-dimethoxyphenyl)-6-(3-fluorophenyl)-[1,2,4]triazolo[4,3-a]pyridine] | ≥ 100
COc1ccc(-c2nnc3ccc(-c4cccc(C(=O)N(C)C)c4)cn23)cc1OC [compound 188, 3-[3-(3,4-dimethoxyphenyl)-[1,2,4]triazolo[4,3-a]pyridin-6-yl]-N,N-dimethyl-benzamide] | 50 to 100
COc1ccc(-c2nnc3ccc(C#Cc4ccncc4)cn23)cc1OC [compound 190, 3-(3,4-dimethoxyphenyl)-6-[2-(4-pyridyl)ethynyl]-[1,2,4]triazolo[4,3-a]pyridine] | 50 to 100
COc1ccc(-c2nnc3ccc(-c4cccs4)cn23)cc1OC [compound 191, 3-(3,4-dimethoxyphenyl)-6-(2-thienyl)-[1,2,4]triazolo[4,3-a]pyridine] | 50 to 100
COc1cncc(-c2ccc3nnc(-c4cccc(OC(F)(F)F)c4)n3c2)c1 [compound 192, 6-(5-methoxy-3-pyridyl)-3-[3-(trifluoromethoxy)phenyl]-[1,2,4]triazolo[4,3-a]pyridine] | 50 to 100
CS(=O)(=O)c1cccc(-c2ccc3nnc(-c4cccc(OC(F)(F)F)c4)n3c2)c1 [compound 193, 6-(3-methylsulfonylphenyl)-3-[3-(trifluoromethoxy)phenyl]-[1,2,4]triazolo[4,3-a]pyridine] | 50 to 100
COc1cccc(C#Cc2ccc3nnc(-c4cccc(OC(F)(F)F)c4)n3c2)c1 [compound 194, 6-[2-(3-methoxyphenyl)ethynyl]-3-[3-(trifluoromethoxy)phenyl]-[1,2,4]triazolo[4,3-a]pyridine] | 20 to 50
FC(F)(F)Oc1cccc(-c2nnc3ccc(-c4cccs4)cn23)c1 [compound 195, 6-(2-thienyl)-3-[3-(trifluoromethoxy)phenyl]-[1,2,4]triazolo[4,3-a]pyridine] | 50 to 100
FC(F)(F)Oc1cccc(-c2nnc3ccc(C#Cc4ccccc4)cn23)c1 [compound 196, 6-(2-phenylethynyl)-3-[3-(trifluoromethoxy)phenyl]-[1,2,4]triazolo[4,3-a]pyridine] | 20 to 50
Nc1cccc(-c2ccc3nnc(-c4cccc(Cl)c4)n3c2)c1 [compound 197, 3-[3-(3-chlorophenyl)-[1,2,4]triazolo[4,3-a]pyridin-6-yl]an iline] | 50 to 100
Clc1cccc(-c2nnc3ccc(-c4ccc5c(c4)OCO5)cn23)c1 [compound 198, 6-(1,3-benzodioxol-5-yl)-3-(3-chlorophenyl)-[1,2,4]triazolo[4,3-a]pyridine] | 50 to 100
Clc1cccc(-c2nnc3ccc(-c4ccncc4)cn23)c1 [compound 199, 3-(3-chlorophenyl)-6-(4-pyridyl)-[1,2,4]triazolo[4,3-a]pyridine] | 50 to 100
Clc1cccc(-c2nnc3ccc(-c4cccnc4)cn23)c1 [compound 200, 3-(3-chlorophenyl)-6-(3-pyridyl)-[1,2,4]triazolo[4,3-a]pyridine] | 50 to 100

Compound | Emax [%]
CC(=O)Nc1ccc(-c2ccc3nnc(-c4cccc(Cl)c4)n3c2)cc1 [compound 202, N-[4-[3-(3-chlorophenyl)-[1,2,4]triazolo[4,3-a]pyridin-6-yl]phenyl]acetamide] | 20 to 50
Clc1cccc(-c2nnc3ccc(-c4cncnc4)cn23)c1 [compound 203, 3-(3-chlorophenyl)-6-pyrimidin-5-yl-[1,2,4]triazolo[4,3-a]pyridine] | 20 to 50
Clc1cccc(-c2nnc3ccc(-c4ncccn4)cn23)c1 [compound 204, 3-(3-chlorophenyl)-6-pyrimidin-2-yl-[1,2,4]triazolo[4,3-a]pyridine] | 10 to 20
Clc1cccc(-c2nnc3ccc(-c4cncc5ccccc45)cn23)c1 [compound 205, 4-[3-(3-chlorophenyl)-[1,2,4]triazolo[4,3-a]pyridin-6-yl]isoquinoline] | 50 to 100
N#Cc1ccc(-c2ccc3nnc(-c4cccc(O)c4)n3c2)cc1 [compound 206, 4-[3-(3-hydroxyphenyl)-[1,2,4]triazolo[4,3-a]pyridin-6-yl]benzonitrile] | 50 to 100
Oc1cccc(-c2nnc3ccc(-c4ccc(F)cc4)cn23)c1 [compound 208, 3-[6-(4-fluorophenyl)-[1,2,4]triazolo[4,3-a]pyridin-3-yl]phenol] | 50 to 100
Oc1cccc(-c2nnc3ccc(-c4cccc5ncccc45)cn23)c1 [compound 209, 3-[6-(5-quinolyl)-[1,2,4]triazolo[4,3-a]pyridin-3-yl]phenol] | 20 to 50
COc1cc(-c2ccc3nnc(-c4cccc(C(F)(F)F)c4)n3c2)cc(OC)c1OC [compound 210, 3-[3-(trifluoromethyl)phenyl]-6-(3,4,5-trimethoxyphenyl)-[1,2,4]triazolo[4,3-a]pyridine] | 50 to 100
CN(C)CCCNC(=O)c1ccc(-c2ccc3nnc(-c4cccc(C(F)(F)F)c4)n3c2)cc1 [compound 211, N-[3-(dimethylamino)propyl]-4-[3-[3-(trifluoromethyl)phenyl]-[1,2,4]triazolo[4,3-a]pyridin-6-yl]benzamide] | 20 to 50
O=C(c1ccc(-c2ccc3nnc(-c4cccc(C(F)(F)F)c4)n3c2)cc1)N1CCOCC1 [compound 212, morpholino-[4-[3-[3-(trifluoromethyl)phenyl]-[1,2,4]triazolo[4,3-a]pyridin-6-yl]phenyl]methanone] | 20 to 50
CN(C)C(=O)c1ccc(-c2ccc3nnc(-c4cccc(C(F)(F)F)c4)n3c2)cc1 [compound 213, N,N-dimethyl-4-[3-[3-(trifluoromethyl)phenyl]-[1,2,4]triazolo[4,3-a]pyridin-6-yl]benzamide] | 20 to 50
Nc1ccc(-c2ccc3nnc(-c4cccc(C(F)(F)F)c4)n3c2)cn1 [compound 214, 5-[3-[3-(trifluoromethyl)phenyl]-[1,2,4]triazolo[4,3-a]pyridin-6-yl]pyridin-2-amine] | 20 to 50
COc1cc(-c2nnc3ccc(-c4ccc(N5CCN(C)CC5)cc4)cn23)ccc1O [compound 215, 2-methoxy-4-[6-[4-(4-methylpiperazin-1-yl)phenyl]-[1,2,4]triazolo[4,3-a]pyridin-3-yl]phenol] | 20 to 50
COc1ccc(-c2ccc3nnc(-c4ccc(O)c(OC)c4)n3c2)cn1 [compound 216, 2-methoxy-4-[6-(6-methoxy-3-pyridyl)-[1,2,4]triazolo[4,3-a]pyridin-3-yl]phenol] | 50 to 100
COc1cc(-c2nnc3ccc(-c4cccc(F)c4)cn23)ccc1O [compound 217, 4-[6-(3-fluorophenyl)-[1,2,4]triazolo[4,3-a]pyridin-3-yl]-2-methoxy-phenol] | 50 to 100
COc1cc(-c2nnc3ccc(-c4ccccc4C)cn23)ccc1O [compound 218, 2-methoxy-4-[6-(o-tolyl)-[1,2,4]triazolo[4,3-a]pyridin-3-yl]phenol] | 50 to 100
COc1cc(-c2ccc3nnc(-c4ccoc4)n3c2)cc(OC)c1OC [compound 219, 3-(3-furyl)-6-(3,4,5-trimethoxyphenyl)-[1,2,4]triazolo[4,3-a]pyridine] | 50 to 100
COc1ccc(-c2ccc3nnc(-c4ccoc4)n3c2)cc1 [compound 220, 3-(3-furyl)-6-(4-methoxyphenyl)-[1,2,4]triazolo[4,3-a]pyridine] | 50 to 100
c1csc(-c2ccc3nnc(-c4ccoc4)n3c2)c1 [compound 221, 3-(3-furyl)-6-(2-thienyl)-[1,2,4]triazolo[4,3-a]pyridine] | 50 to 100
N#Cc1cccc(-c2nnc3ccc(-c4ccccn4)cn23)c1 [compound 222, 3-[6-(2-pyridyl)-[1,2,4]triazolo[4,3-a]pyridin-3-yl]benzonitrile] | 20 to 50
COc1ccc(-c2ccc3nnc(-c4ccccc4C)n3c2)cc1OC [compound 223, 6-(3,4-dimethoxyphenyl)-3-(o-tolyl)-[1,2,4]triazolo[4,3-a]pyridine] | 50 to 100
